From ChEMBL document CHEMBL1133074, “2-Methyladenosine-Substituted 2',5'-oligoadenylates: conformations, 2-5A binding and catalytic activities with human ribonuclease L” (Bioorg Med Chem Lett, 2000)
pEC50, pIC50: −log10 of the molar value.

How the values were obtained:
[1] = Ratio of quotient (binding IC50)/(activation EC50 for the poly (U) assay)
[2] = target: T1, 2-5A-dependent ribonuclease (Homo sapiens, UniProt Q05823); test: Compound was tested for its binding ability, by displacement of p(A2'p)3A3'[32p]p5'Cp from recombinant human ribonuclease L
T1 sequence (Q05823 whole entry): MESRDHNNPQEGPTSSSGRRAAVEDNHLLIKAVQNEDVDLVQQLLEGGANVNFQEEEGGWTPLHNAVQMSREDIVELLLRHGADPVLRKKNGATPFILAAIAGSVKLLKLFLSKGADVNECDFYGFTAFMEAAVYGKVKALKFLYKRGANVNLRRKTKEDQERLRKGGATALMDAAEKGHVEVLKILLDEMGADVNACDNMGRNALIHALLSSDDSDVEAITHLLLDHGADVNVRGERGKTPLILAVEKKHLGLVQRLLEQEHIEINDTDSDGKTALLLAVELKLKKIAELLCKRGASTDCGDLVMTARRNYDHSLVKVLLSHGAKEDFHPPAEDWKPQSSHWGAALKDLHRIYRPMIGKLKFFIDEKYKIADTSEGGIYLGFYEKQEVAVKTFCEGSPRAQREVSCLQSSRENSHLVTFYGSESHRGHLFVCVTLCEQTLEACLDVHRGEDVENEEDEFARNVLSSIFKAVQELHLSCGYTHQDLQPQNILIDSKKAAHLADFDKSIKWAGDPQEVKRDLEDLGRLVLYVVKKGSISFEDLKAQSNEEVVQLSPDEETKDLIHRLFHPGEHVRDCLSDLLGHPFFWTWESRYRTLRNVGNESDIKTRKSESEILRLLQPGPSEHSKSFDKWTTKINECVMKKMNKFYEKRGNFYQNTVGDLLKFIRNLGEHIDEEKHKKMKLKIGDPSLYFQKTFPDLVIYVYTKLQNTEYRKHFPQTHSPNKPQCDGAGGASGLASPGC

[3] = (§1) Relative concentration required to cause 50% degradation of the poly (U) 3'[32P]p5'C3'p
[4] = (§2) Relative concentration required to displace 50% of the p(A2'p)3A3'[32p]p5'Cp
[5] = (§3) Relative concentration required to cause 50% degradation of the [32P]-pC11U2C7
[6] = target: T1, 2-5A-dependent ribonuclease; test: Activation of purified recombinant human Ribonuclease L by the compound was measured as degradation of poly (U) 3'[32P]p5'C3'p
[7] = target: T1, 2-5A-dependent ribonuclease; test: Activation of purified recombinant human Ribonuclease L by the compound was measured as degradation of [32P]-pC11U2C7
[8] = as §1; format: functional
[9] = as §2; format: functional
[10] = as §3; format: functional

Rn [1]	pIC50 [2]	Crel [3]	Crel [4]	Crel [5]	pEC50 [6]	pEC50 [7]	SMILES	Crel [8]	Crel [9]	Crel [10]
1	–	1	1	1	–	–	Nc1ncnc2c1ncn2[C@@H]1O[C@H](COP(=O)(O)O[C@@H]2[C@H](O)[C@@H](COP(=O)(O)O[C@@H]3[C@H](O)[C@@H](COP(=O)(O)O)O[C@H]3n3cnc4c(N)ncnc43)O[C@H]2n2cnc3c(N)ncnc32)[C@@H](O)[C@H]1O	–	–	–
1.4	7.24	6	8	2.7	9.08	9.15	Cc1nc(N)c2ncn([C@@H]3O[C@H](COP(=O)(O)O)[C@@H](O)[C@H]3OP(=O)(O)OC[C@H]3O[C@@H](n4cnc5c(N)ncnc54)[C@H](OP(=O)(O)OC[C@H]4O[C@@H](n5cnc6c(N)ncnc65)[C@H](O)[C@@H]4O)[C@@H]3O)c2n1	–	–	–

The next lines start with the compound.

SMILES	Rn [1]	pIC50 [2]	Crel [3]	Crel [4]	Crel [5]	pEC50 [6]	pEC50 [7]	Crel [8]	Crel [9]	Crel [10]
Cc1nc(N)c2ncn([C@@H]3O[C@H](COP(=O)(O)O[C@@H]4[C@H](O)[C@@H](COP(=O)(O)O[C@@H]5[C@H](O)[C@@H](COP(=O)(O)OP(=O)(O)OP(=O)(O)O)O[C@H]5n5cnc6c(N)ncnc65)O[C@H]4n4cnc5c(N)ncnc54)[C@@H](O)[C@H]3O)c2n1	0.06	9.14	2	0.1	1.5	9.62	9.52	–	–	–
Cc1nc(N)c2ncn([C@@H]3O[C@H](COP(=O)(O)O[C@@H]4[C@H](O)[C@@H](COP(=O)(O)O[C@@H]5[C@H](O)[C@@H](COP(=O)(O)O)O[C@H]5n5cnc6c(N)nc(C)nc65)O[C@H]4n4cnc5c(N)nc(C)nc54)[C@@H](O)[C@H]3O)c2n1	1.4	5.97	107	146	120	7.80	7.52	–	–	–
Cc1nc(N)c2ncn([C@@H]3O[C@H](COP(=O)(O)O[C@@H]4[C@H](O)[C@@H](COP(=O)(O)O[C@@H]5[C@H](O)[C@@H](COP(=O)(O)O)O[C@H]5n5cnc6c(N)ncnc65)O[C@H]4n4cnc5c(N)ncnc54)[C@@H](O)[C@H]3O)c2n1	0.4	8.59	–	–	–	9.89	9.70	0.9	0.4	1
Cc1nc(N)c2ncn([C@@H]3O[C@H](COP(=O)(O)O[C@@H]4[C@H](O)[C@@H](COP(=O)(O)O[C@@H]5[C@H](O)[C@@H](COP(=O)(O)OP(=O)(O)OP(=O)(O)O)O[C@H]5n5cnc6c(N)nc(C)nc65)O[C@H]4n4cnc5c(N)nc(C)nc54)[C@@H](O)[C@H]3O)c2n1	0.5	6.98	31	15	20	8.34	8.40	–	–	–
Cc1nc(N)c2ncn([C@@H]3O[C@H](COP(=O)(O)OP(=O)(O)OP(=O)(O)O)[C@@H](O)[C@H]3OP(=O)(O)OC[C@H]3O[C@@H](n4cnc5c(N)ncnc54)[C@H](OP(=O)(O)OC[C@H]4O[C@@H](n5cnc6c(N)ncnc65)[C@H](O)[C@@H]4O)[C@@H]3O)c2n1	0.7	7.62	5	3	4	9.17	9.10	–	–	–
